Results taken from US20260207585A1, “METHODS AND COMPOSITIONS FOR THE TREATMENT OF PARKINSON'S DISEASE, HUNTINGTON'S DISEASE, AMYOTROPHIC LATERAL SCLEROSIS, AND LEARNING DISORDERS” (Cedars-Sinai Medical Center, priority 2022, published 2026).
Like-named read-outs stand apart in the source and are kept apart here.

Tests used:
[1] = molecular target: SETDB1 (Homo sapiens, UniProt Q15047); assay: Methyltransferase inhibition panel: SETDB1; format: biochemical
Description: (§1) The ability of ETP69 to inhibit methyltransferases was tested.

[2] = molecular target: T1, NSD3 (Homo sapiens, UniProt Q9BZ95); assay: Methyltransferase inhibition panel: NSD3; format: biochemical
T1 sequence (Q9BZ95 1-1437): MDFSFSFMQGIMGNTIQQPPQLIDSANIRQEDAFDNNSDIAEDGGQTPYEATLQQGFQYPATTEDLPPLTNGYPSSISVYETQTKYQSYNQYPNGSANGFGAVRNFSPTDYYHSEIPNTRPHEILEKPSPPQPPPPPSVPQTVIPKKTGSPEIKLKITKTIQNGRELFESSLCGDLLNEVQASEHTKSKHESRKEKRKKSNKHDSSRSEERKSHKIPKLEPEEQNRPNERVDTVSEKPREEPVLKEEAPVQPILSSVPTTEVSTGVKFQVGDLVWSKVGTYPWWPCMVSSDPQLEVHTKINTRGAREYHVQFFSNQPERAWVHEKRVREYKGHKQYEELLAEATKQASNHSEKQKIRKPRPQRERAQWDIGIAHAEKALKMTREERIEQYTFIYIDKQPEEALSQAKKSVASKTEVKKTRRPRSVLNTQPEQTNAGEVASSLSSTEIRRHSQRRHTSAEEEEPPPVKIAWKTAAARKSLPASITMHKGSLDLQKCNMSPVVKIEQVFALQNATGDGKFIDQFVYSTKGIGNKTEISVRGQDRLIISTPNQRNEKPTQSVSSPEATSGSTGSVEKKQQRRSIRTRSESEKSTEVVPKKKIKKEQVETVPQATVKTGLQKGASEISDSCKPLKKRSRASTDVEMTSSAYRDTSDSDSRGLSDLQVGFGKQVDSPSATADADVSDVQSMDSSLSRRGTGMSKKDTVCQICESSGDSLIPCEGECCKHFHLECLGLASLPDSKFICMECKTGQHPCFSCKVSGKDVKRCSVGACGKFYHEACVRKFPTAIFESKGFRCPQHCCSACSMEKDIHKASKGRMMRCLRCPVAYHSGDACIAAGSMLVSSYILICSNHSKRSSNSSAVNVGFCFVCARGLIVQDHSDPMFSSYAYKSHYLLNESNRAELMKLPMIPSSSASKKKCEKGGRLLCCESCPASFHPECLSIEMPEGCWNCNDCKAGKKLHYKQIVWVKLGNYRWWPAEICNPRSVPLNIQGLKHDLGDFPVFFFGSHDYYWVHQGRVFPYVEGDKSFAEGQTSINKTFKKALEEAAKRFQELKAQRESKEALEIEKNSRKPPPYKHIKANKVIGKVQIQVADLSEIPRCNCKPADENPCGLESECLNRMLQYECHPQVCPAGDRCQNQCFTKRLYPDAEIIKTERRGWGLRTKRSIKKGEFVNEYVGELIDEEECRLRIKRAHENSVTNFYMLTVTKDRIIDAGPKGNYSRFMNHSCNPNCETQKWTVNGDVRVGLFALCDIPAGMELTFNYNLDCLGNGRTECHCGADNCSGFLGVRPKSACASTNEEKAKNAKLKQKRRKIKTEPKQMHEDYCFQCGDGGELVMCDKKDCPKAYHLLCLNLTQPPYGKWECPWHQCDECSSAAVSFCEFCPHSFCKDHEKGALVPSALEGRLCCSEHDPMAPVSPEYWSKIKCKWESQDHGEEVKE
Description: as §1

[3] = NT1721 20 μM, substrate Nucleosomes 0.05 mg/mL

CN1C(=O)[C@@]23C[C@](C)(C#N)[C@H](c4ccc5c(c4)OCO5)N2C(=O)[C@]1(C)SS3 (racemic) [ETP69, Rac-(3S,6S,7S,8aS)-6-(benzo[d][1,3]dioxol-5-yl)-2,3,7-trimethyl-1,4-dioxohexahydro-6H-3,8a-epidithiopyrrolo[1,2-a]pyrazine-7-carbonitrile]
remaining activity at 20 µM ([1]; read-out: Enzyme % Activity (relative to DMSO controls) Data 1): 40.1% | remaining activity at 20 µM ([1]; read-out: Enzyme % Activity (relative to DMSO controls) Data 2): 37.1% | inhibition relative to DMSO controls ([1]; summary of Table 1): at least 7500 | Enzyme % Activity (relative to DMSO controls) Data 1 [2, 3]: 10.33% | Enzyme % Activity (relative to DMSO controls) Data 2 [2, 3]: 10.21% | inhibition relative to DMSO controls ([2]; summary of Table 1): at least 7500
